How the values were obtained:
Type in all cases: organism-based
Settings in all cases: artemia, in vivo
[1] = Toxicity in brine shrimp at 500 ppm
[2] = Toxicity in brine shrimp at 250 ppm
[3] = Toxicity in brine shrimp at 1000 ppm

C/C(C[C@@H](O)[C@@H](C)[C@H]1CC[C@H]2[C@@H]3CC=C4C[C@@H](O[C@@H]5O[C@H](CO)[C@@H](O)[C@H](O)[C@H]5O)C[C@H](O)[C@]4(C)[C@H]3CC[C@]12C)=C(/C)C(=O)O[C@@H]1O[C@H](CO)[C@@H](O)[C@H](O)[C@H]1O[C@@H]1O[C@H](CO)[C@@H](O)[C@H](O)[C@H]1O
100%: survival at 500 ppm [1] | survival at 250 ppm [2] | survival at 1000 ppm [3]

C/C(C[C@@H](O)[C@@H](C)[C@H]1CC[C@H]2[C@@H]3CC=C4C[C@@H](O)C[C@H](O)[C@]4(C)[C@H]3[C@@H](O)C[C@]12C)=C(/C)C(=O)O[C@@H]1O[C@H](CO)[C@@H](O)[C@H](O)[C@H]1O
100%: survival at 500 ppm [1] | survival at 250 ppm [2] | survival at 1000 ppm [3]

CC(=O)OC[C@H]1O[C@@H](OC(=O)/C(C)=C(\C)C[C@@H](O)[C@@H](C)[C@H]2CC[C@H]3[C@@H]4CC=C5C[C@@H](O[C@@H]6O[C@H](CO)[C@@H](O)[C@H](O)[C@H]6O)C[C@H](O)[C@]5(C)[C@H]4CC[C@]23C)[C@H](O[C@@H]2O[C@H](CO)[C@@H](O[C@@H]3O[C@H](CO)[C@@H](O)[C@H](O)[C@H]3O)[C@H](O)[C@H]2O)[C@@H](O)[C@@H]1O
100%: survival at 500 ppm [1] | survival at 250 ppm [2] | survival at 1000 ppm [3]

CC(=O)OC[C@H]1O[C@@H](OC(=O)/C(C)=C(\C)C[C@@H](O)[C@@H](C)[C@H]2CC[C@H]3[C@@H]4CC=C5C[C@@H](O[C@@H]6O[C@H](CO)[C@@H](O)[C@H](O)[C@H]6O)C[C@H](O)[C@]5(C)[C@H]4CC[C@]23C)[C@H](O[C@@H]2O[C@H](CO)[C@@H](O)[C@H](O)[C@H]2O)[C@@H](O)[C@@H]1O
100%: survival at 500 ppm [1] | survival at 250 ppm [2] | survival at 1000 ppm [3]

CC(=O)OC[C@H]1O[C@@H](OC(=O)/C(C)=C(\C)C[C@@H](O)[C@@H](C)[C@H]2CC[C@H]3[C@@H]4CC=C5C[C@@H](O)C[C@H](O)[C@]5(C)[C@H]4[C@@H](O)C[C@]23C)[C@H](O[C@@H]2O[C@H](CO)[C@@H](O)[C@H](O)[C@H]2O)[C@@H](O)[C@@H]1O
100%: survival at 500 ppm [1] | survival at 250 ppm [2] | survival at 1000 ppm [3]

CC(=O)OC[C@H]1O[C@@H](OC(=O)/C(C)=C(\C)C[C@@H](O)[C@@H](C)[C@H]2CC[C@H]3[C@@H]4CC=C5C[C@@H](O[C@@H]6O[C@H](CO)[C@@H](O)[C@H](O)[C@H]6O)C[C@H](O)[C@]5(C)[C@H]4CC[C@]23C)[C@H](O[C@@H]2O[C@H](COC(C)=O)[C@@H](O[C@@H]3O[C@H](CO)[C@@H](O)[C@H](O)[C@H]3O)[C@H](O)[C@H]2O)[C@@H](O)[C@@H]1O
100%: survival at 500 ppm [1] | survival at 250 ppm [2] | survival at 1000 ppm [3]

— ChEMBL document CHEMBL1149046, “Insect Inhibitory Steroidal Saccharide Esters from Physalis peruviana” (J Nat Prod, 1994)
